Test results published in ChEMBL document CHEMBL1129916, “Topoisomerase II inhibitors. Synthetic hybridization of 4-quinolones and anthracyclines” (Bioorg Med Chem Lett, 1997).
Active and inactive are the calls of the source. No cut-off for these calls is given here.

What was measured:
Bacteria = assay: In vitro activity in agar dilution-streak assay against Gram-positive bacteria at 100 ug/ml; IA means Inactive; format: functional, organism-based
[1] = In vitro activity in agar dilution-streak assay against Gram-negative bacteria at 100 ug/ml; IA means Inactive; format: functional
P388 = assay: In vitro inhibitory activity against P-388 tumor cells; IA= Inactive; format: functional, cell-based, Mus musculus
A549 = assay: In vitro inhibitory activity against A549 tumor cell culture; IA= Inactive; format: functional, cell-based, Homo sapiens
Nucleic Acid = assay: Inhibitory against Escherichia coli derived DNA gyrase II as ability to induce strand breakage; IA means Inactive; format: nucleic-acid assay
B16-F10 = assay: In vitro inhibitory activity against B16F10 tumor cells; IA= Inactive; format: functional, cell-based, Mus musculus
HT-29 = assay: In vitro inhibitory activity against HT-29 tumor cells; IA= inactive; format: functional, cell-based, Homo sapiens

Q: Which Activity (Bacteria) does the source give for O=C(O)c1cn(C2CC2)c2cc(N3CCNCC3)c(F)cc2c1=O here?
A: inactive

Q: And the Activity [1]?
A: inactive

Q: With O=C1c2ccccc2C(=O)c2c(O)c3c(c(O)c21)C(=O)C(C(=O)O)CN3C1CC1 (stereo not drawn) as the molecule, how does the Activity (Bacteria) read?
A: inactive

Q: What about the IC50 (P388) of the same molecule?
A: Not Active

Q: And the IC50 (A549)?
A: Not Active

Q: And the Activity [1]?
A: inactive

Q: What about the Activity (Nucleic Acid) of the same molecule?
A: inactive

Q: What about the IC50 (B16-F10) of the same molecule?
A: Not Active

Q: What about the IC50 (HT-29) of the same molecule?
A: Not Active

Q: Which results are given for CCN1CC(C(=O)O)C(=O)c2c(O)c3c(c(O)c21)C(=O)c1ccccc1C3=O (stereo not drawn)?
A: Activity (Bacteria): inactive; IC50 (P388): Not Active; IC50 (A549): Not Active; Activity [1]: inactive; Activity (Nucleic Acid): inactive; IC50 (B16-F10): Not Active; IC50 (HT-29): Not Active

Q: What does the source list for O=C1c2ccccc2C(=O)c2c(O)c3c(c(O)c21)C(=O)C(C(=O)O)CN3c1ccc(F)cc1 (stereo not drawn)?
A: Activity (Bacteria): inactive; IC50 (P388): Not Active; IC50 (A549): Not Active; Activity [1]: inactive; Activity (Nucleic Acid): inactive; IC50 (B16-F10): Not Active; IC50 (HT-29): Not Active
